The target of test [1] is T1, B-Raf kinase (Homo sapiens, UniProt P15056).
T1 construct: GST (N); purchased Sigma
Kind of test: Biochemical Assay for B-Raf (coupled pyruvate kinase/lactate dehydrogenase assay).

The target in test [2] is T2, C-Raf kinase (Homo sapiens, UniProt P04049, Y340D/Y341D).
T2 construct: C-Raf residues 306-end; Y340D, Y341D with N-; GST (N); purchased Eurofins
Kind of test: Biochemical Assay for C-Raf (coupled pyruvate kinase/lactate dehydrogenase assay).

The subject of test [3] is Pa16c cells. Kind of test: Pa16c Cell Proliferation Assay. Type of test: cell-based. The conditions noted are these: Table 2, inhibition of cell proliferation. How it is done:
Pa16c cells are obtained from Dr. Channing Der, University of North Carolina at Chapel Hill. Briefly, cells are grown in Dulbecco's Modified Eagle Medium supplemented with 10% characterized fetal bovine serum (Invitrogen, Carlsbad, CA) and 1% Penicillin/Streptomycin/L-Glutamine at 37° C., 5% CO2, and 95% humidity. Cells are expanded until reaching 70-95% confluency at which point they are sub-cultured or harvested for assay use. A serial dilution of test compound is dispensed into a 384-well black clear bottom plate in triplicate. 750 cells are added per well in 50 μL complete growth medium in the 384-well plate. Plates are incubated for 67 to 72 hours at 37° C., 5% CO2, and 95% humidity. At the end of the incubation, 40 μL of a […] solution of resazurin (Sigma, St. Louis, MO) in PBS is added to each well of the plate and plates are incubated for an additional 18 to 24 hours at 37° C., 5% CO2, and 95% humidity. Plates are read on a Synergy2 or equivalent reader (Biotek, Winooski, VT) using an excitation of 540 nm and an emission of 600 nm. Data is analyzed using Prism software (Graphpad, San Diego, CA) to calculate IC50 values.

Test [4] relates to tubulin. Kind of test: Cellular Tubulin Polymerization Assay (HCT-116 cells). Type of test: cell-based. The conditions noted are these: Table 3, HCT-116 cells; read-out: Tubulin Cellular IC50.
Test [5] deals with MiaPaca-2 cells. Kind of test: MiaPaca-2 Cell Proliferation Assay. Format: cell-based. The conditions noted are these: Homo sapiens, MIA PaCa-2.
Test [6] has as its system HCT-116 cells. Briefly: HCT-116 Cell Proliferation Assay. Format: cell-based. The conditions noted are these: Homo sapiens. How it is done: HCT-116 cells (catalog #CCL-247) are obtained from the American Type Culture Collect (ATCC, Manassas, VA). Briefly, cells are grown in McCoy's 5A supplemented with 10% characterized fetal bovine serum (Invitrogen, Carlsbad, CA) and 1% Penicillin/Streptomycin/L-Glutamine at 37° C., 5% CO2, and 95% humidity. Cells are expanded until reaching 70-95% confluency at which point they are sub-cultured or harvested for assay use. A serial dilution of test compound is dispensed into a 384-well black clear bottom plate in triplicate. 375 cells are added per well in 50 μL complete growth medium in the 384-well plate. Plates are incubated for 67 to 72 h at 37° C., 5% CO2, and 95% humidity. At the end of the incubation, 40 μL of a […] solution of resazurin (Sigma, St. Louis, MO) in PBS is added to each well of the plate and plates are incubated for an additional 4 to 5 hours at 37° C., 5% CO2, and 95% humidity. Plates are read on a Synergy2 or equivalent reader (Biotek, Winooski, VT) using an excitation of 540 nm and an emission of 600 nm. Data is analyzed using Prism software (Graphpad, San Diego, CA) to calculate IC50 values.

Test [7] has as its system HPAF-II cells. Briefly: HPAF-II Cell Proliferation Assay. Type of test: cell-based. The conditions noted are these: Homo sapiens. How it is done: HPAF-II cells (catalog #CRL-1997) are obtained from the American Type Culture Collect (ATCC, Manassas, VA). Briefly, cells are grown in Minimum Essential Media supplemented with 10% characterized fetal bovine serum (Invitrogen, Carlsbad, CA) and 1% Penicillin/Streptomycin/L-Glutamine at 37° C., 5% CO2, and 95% humidity. Cells are expanded until reaching 70-95% confluency at which point they are sub-cultured or harvested for assay use. A serial dilution of test compound is dispensed into a 384-well black clear bottom plate in triplicate. 750 cells are added per well in 50 μL complete growth medium in the 384-well plate. Plates are incubated for 115 to 120 h at 37° C., 5% CO2, and 95% humidity. At the end of the incubation, 40 μL of a […] solution of resazurin (Sigma, St. Louis, MO) in PBS is added to each well of the plate and plates are incubated for an additional 18 to 24 h at 37° C., 5% CO2, and 95% humidity. Plates are read on a Synergy2 or equivalent reader (Biotek, Winooski, VT) using an excitation of 540 nm and an emission of 600 nm. Data is analyzed using Prism software (Graphpad, San Diego, CA) to calculate IC50 values.

Setting [8] is: Table 1, inhibition of biochemical activity, read-out: BRAF.
Setting [9] is: Table 1, inhibition of biochemical activity, read-out: CRAF.
Where [10] appears, read: Table 2, inhibition of cell proliferation, read-out: MiaPaca-2.
The mark [11] stands for this setting: Table 3, read-out: MiaPaca-2 IC50.
Setting [12] is: HCT-116, Table 3, read-out: HCT-116 IC50.
[13] abbreviates: Table 2, inhibition of cell proliferation, read-out: HCT-116.
[14] abbreviates: HPAF-II, Table 3, read-out: HPAF-II IC50.
[15] abbreviates: Table 2, inhibition of cell proliferation, read-out: HPAF-II.

Read-outs that look alike come from different tables or passages of the source.

T2 sequence (P04049 307-648 Y340D/Y341D): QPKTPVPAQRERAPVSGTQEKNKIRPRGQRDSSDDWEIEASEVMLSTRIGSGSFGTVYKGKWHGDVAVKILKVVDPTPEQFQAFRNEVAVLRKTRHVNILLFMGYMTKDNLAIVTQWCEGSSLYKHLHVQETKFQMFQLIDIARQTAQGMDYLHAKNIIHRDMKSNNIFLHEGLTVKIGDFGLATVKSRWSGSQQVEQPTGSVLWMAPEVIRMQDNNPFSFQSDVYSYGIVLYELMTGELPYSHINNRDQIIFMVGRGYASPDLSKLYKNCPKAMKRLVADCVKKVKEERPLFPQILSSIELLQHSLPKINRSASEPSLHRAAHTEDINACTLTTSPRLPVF
T1 sequence (P15056 416-766): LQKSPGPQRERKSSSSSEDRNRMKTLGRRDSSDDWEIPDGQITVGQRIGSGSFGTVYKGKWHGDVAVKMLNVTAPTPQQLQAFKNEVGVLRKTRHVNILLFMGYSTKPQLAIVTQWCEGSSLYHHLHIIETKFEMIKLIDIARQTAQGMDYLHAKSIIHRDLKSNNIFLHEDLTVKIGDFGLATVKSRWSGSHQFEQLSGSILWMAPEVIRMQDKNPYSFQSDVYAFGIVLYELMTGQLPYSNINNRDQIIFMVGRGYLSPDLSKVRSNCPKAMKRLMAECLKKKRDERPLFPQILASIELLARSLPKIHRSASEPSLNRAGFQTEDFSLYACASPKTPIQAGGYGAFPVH

As to `CC(=O)Nc1cc(-c2cc(-c3cc(NC(=O)Nc4ccc(C(F)(F)F)nc4)ccc3C)ccn2)ccn1` [Example 4], the IC50 is below 100 nM in test [1] (setting [8]); below 100 nM in test [1] (Table 3, read-out: BRAF IC50); below 100 nM in test [2] (setting [9]); below 100 nM in test [2] (Table 3, read-out: CRAF IC50); below 100 nM in test [3]; below 100 nM in test [4]. Besides, the IC50 is below 100 nM in test [5] (setting [10]); below 100 nM in test [5] (setting [11]); below 100 nM in test [6] (setting [12]); below 100 nM in test [6] (setting [13]); 100 to 500 nM in test [7] (setting [14]); 100 to 500 nM in test [7] (setting [15]).

In the case of `CC(=O)Nc1cc(-c2cc(-c3cc(NC(=O)Nc4ccc(C(F)(F)F)nc4)ccc3C)cn(C)c2=O)ccn1` [Example 9], the IC50 in test [1] (setting [8]) is below 100 nM; in test [1] (Table 3, read-out: BRAF IC50), below 100 nM; in test [2] (setting [9]), below 100 nM; in test [2] (Table 3, read-out: CRAF IC50), below 100 nM; in test [3], 100 to 500 nM; in test [4], below 100 nM. For the same compound, the IC50 in test [5] (setting [10]) was below 100 nM; in test [5] (setting [11]), below 100 nM; in test [6] (setting [12]) it was below 100 nM; in test [6] (setting [13]), below 100 nM; in test [7] (setting [14]) it was 500 to 1000 nM; in test [7] (setting [15]), 500 to 1000 nM.

For `Cc1ccc(NC(=O)Nc2ccc(C(F)(F)F)nc2)cc1-c1cc(N2CCOCC2)nc(N2CCC(O)CC2)n1` [Example 34], the IC50 in test [1] (setting [8]) is 100 to 500 nM; in test [1] (Table 3, read-out: BRAF IC50) it was 100 to 500 nM; in test [2] (setting [9]) it was below 100 nM; in test [2] (Table 3, read-out: CRAF IC50) it was 100 to 500 nM; in test [3], 500 to 1000 nM; in test [4], below 100 nM. In addition, the IC50 in test [5] (setting [10]) was below 100 nM; in test [5] (setting [11]) it was below 100 nM; in test [6] (setting [12]) it was below 100 nM; in test [6] (setting [13]) it was below 100 nM; in test [7] (setting [14]), 100 to 500 nM; in test [7] (setting [15]) it was 100 to 500 nM.

With `Cc1ccc(NC(=O)Nc2ccc(C(F)(F)F)nc2)cc1-c1cc(OC[C@H](C)O)nc(N2CCOCC2)c1` [Example 39], the IC50 in test [1] (setting [8]) was 100 to 500 nM; in test [1] (Table 3, read-out: BRAF IC50) it was 100 to 500 nM; in test [2] (setting [9]), below 100 nM; in test [2] (Table 3, read-out: CRAF IC50) it was below 100 nM; in test [3], 100 to 500 nM; in test [4], below 100 nM. Moreover, the IC50 in test [5] (setting [10]), in test [5] (setting [11]), in test [6] (setting [12]), in test [6] (setting [13]), in test [7] (setting [14]) and in test [7] (setting [15]) was below 100 nM throughout.

Regarding `Cc1ccc(NC(=O)Nc2ccc(C(F)(F)F)nc2)cc1-c1cc(OC[C@@H](C)O)nc(N2CCOCC2)c1` [Example 40], the IC50 in test [1] (setting [8]) is below 100 nM; in test [1] (Table 3, read-out: BRAF IC50), 100 to 500 nM; in test [2] (setting [9]), below 100 nM; in test [2] (Table 3, read-out: CRAF IC50), below 100 nM; in test [3] it was 100 to 500 nM; in test [4] it was below 100 nM. Moreover, the IC50 in test [5] (setting [10]), in test [5] (setting [11]), in test [6] (setting [12]), in test [6] (setting [13]), in test [7] (setting [14]) and in test [7] (setting [15]) was below 100 nM in each case.

(Values after patent publication US20260176279A1, “DUAL RAF AND TUBULIN INHIBITORS AND METHODS OF USE THEREOF” (Deciphera Pharmaceuticals, LLC, priority 2023, published 2026).)
